Assay results reported in patent US20230414771A1, “PREPARATION AND USE OF IMMUNOSTIMULATORY CONJUGATED COMPLEXES FOR TARGETED DELIVERY AND ACTIVATION” (YAFEI SHANGHAI BIOLOGY MEDICINE SCIENCE & TECHNOLOGY CO., …, priority 2020, published 2023).
Where a SMILES comes first, the peptide text is derived from it. [ ]: non-standard residue; d: D form. The star is where a group is joined. ξ: configuration not given here. Doxorubicin(3'-N) = COc1cccc2c1C(=O)c1c(O)c3c(c(O)c1C2=O)C[C@@](O)(C(=O)CO)C[C@@H]3O[C@H]1C[C@H](N*)[C@H](O)[C@H](C)O1; X2 = CC(C)(C)c1nc(-c2cccc(NS(=O)(=O)c3c(F)cccc3F)c2F)c(-c2ccnc(N*)n2)s1; Hexanoyl(6-maleimido) = O=C1C=CC(=O)N1CCCCCC(=O)*; Propanoyl(3-maleimido) = O=C1C=CC(=O)N1CCC(=O)*; X1 = O=C1C=CC(=O)N1CCOCCOCCOCCC(=O)*; X3 = O=C1C=CC(=O)N1CCOCCOCCC(=O)*; PEG3 = NCCOCCOCCOCCC(=O)O; PEG2 = NCCOCCOCCC(=O)O; ξL = CC(C)CC(N)C(=O)O

Tests used:
HT1080 tumors = assay: HT1080 tumor model in nude mice, 36 umol/kg; format: in vivo; conditions: for inhibition in vivo at 36 µmol/kg: Mus musculus, HT-1080, iv, 672 h, read-out: Tumor inhibition rate Day 28
Protocol: • 1. Animals: nude mice aged 6-8 weeks, all female. • 2. Preparation of tumor models • 1) HT1080 cells were purchased from ATCC and characterized according to the instructions provided. […] Randomization was performed when the tumor size reached 100 mm^3. Treatment was then initiated, and the day of initiation of treatment was counted as Day 1. • 3) Treatment process
According to the clinical application of the corresponding compound, the drug was administered intravenously (IV). The compounds indicated in the table were administered at a low dose and at the same dose of 36 umol/kg.

[1] = test system: Human hepatoma HepG2 cells; assay: Human liver cancer HepG2 tumors in nude mice; format: in vivo; conditions: for inhibition in vivo at 54 µmol/kg: Mus musculus, HepG2, iv, 672 h, read-out: Tumor inhibition rate (%) Day 28
Protocol: • 1. Animals: nude mice aged 6-8 weeks, all female. • 2. Preparation of tumor models
Human hepatoma HepG2 cells were purchased from ATCC and identified according to the instructions provided. […] Randomization was performed when the tumor size reached 100 mm^3.
Treatment was then initiated, and the day of initiation of treatment was counted as Day 1. • 3) Treatment process
According to the clinical application of the corresponding compound, the drug was administered intravenously (IV). The compound and the control drug were administered at a dose of 54 umol/kg, and DOX could only be administered at a dose of 18 umol/kg due to toxicity limitations.

M2 macrophages = assay: Cytotoxicity screening, inhibition rate of M2 macrophages at 10 uM; format: cell-based, C57BL/6 mice; conditions: 10 uM drug per well, 3 wells, relative to the drug-free group
Protocol: After the cell count in Example 13, the cell concentration was adjusted with the culture medium, and the cells were seeded in a 96-well culture plate at […] of cell suspension per well, wherein the seeding concentration of CD8+ T cells was 100000 cells/well, and the seeding concentration of M2 macrophages was 20000 cells/well. The 96-well plate was incubated overnight for 24 hour at 37° C. in a carbon dioxide (5%) incubator. After 24 hours, 100 ul of cell culture solutions containing different concentrations of drugs were added to the 96-well culture plate. At the same time, a control well (0.1% DMSO) with no drug added and only the corresponding drug solvent and a zero-adjusted well (Blank) with only medium and no cells added was set. Each set was prepared in triplicate and the plates were incubated for 48 hours at 37° C. in a 5% CO2 incubator. After 48 hours, 20 μl MTT (5 mg/ml) was added to each well and the incubation was continued for 4 hours. The culture medium was then gently aspirated, and 150 μl DMSO was added to each well as solvent for dissolution. After dissolution, the absorbance at 490 nm was measured with a microplate reader.
Cytotoxicity screening experiments for some compounds were performed for M2 macrophage inhibition as in embodiment 14.

[2] = Water solubility test (observation and HPLC); format: physicochemical; conditions: thermodynamic from solid
Protocol: The compounds prepared in accordance with the examples of the disclosure and the reference compounds C1, C2, C3 and C4 were lyophilized (−70° C.).

CT26 tumor = CT26 tumor immune model, tumor suppression and CD8+ T cell analysis; format: in vivo, BALB/c mice; conditions: for CD8:CD45 (%): CD8-positive among CD45-positive cells in tumor, flow cytometry; for Tumor inhibition rate (%) Day 28 / Tumor volume (mm^3) Day 28: drug 36 umol/kg once a week for three weeks, PD-1 antibody 5 mg/kg
Protocol: • 1) CT26 cells were purchased from ATCC. […] The corresponding 5×10^6 cells were injected subcutaneously into the back of […] mice. After the size of tumors reached at least 100 mm^3, the mice were randomized into groups. Treatment was then initiated, with the day of treatment initiation being Day 1. • 3) The course of treatment. The drug was administered at an equimolar dose of 36 umol/kg. The control group was given normal saline. The drug was administered once a week for three week. • 4) Tumor CD8+ T cell analysis. Tumor tissue was homogenized, individual cells in the tumor were filtered, dissociated and washed twice with buffer, and then incubated with leukocyte common antigen CD45-PE and CD8-FITC-labeled antibodies for 1 hour at room temperature. The cells were washed twice with phosphate buffered saline containing 1% fetal bovine serum, and then the proportion of T lymphocyte antigen (CD8)-positive cells in leukocyte common antigen (CD45)-positive cells was analyzed by flow cytometry. An increase in the ratio indicates an increase in T lymphocytes and therefore an improvement in the immunity of the animal to the tumor. • 5) The grouping and test results are shown in Table 7.

COc1cccc2c1C(=O)c1c(O)c3c(c(O)c1C2=O)C[C@@](O)(C(=O)CO)C[C@@H]3O[C@H]1C[C@H](NC(=O)[C@H](CC(C)C)NC(=O)[C@H](CC(N)=O)NC(=O)[C@H](C)NC(=O)[C@H](C)NC(=O)CCOCCOCCOCCN2C(=O)C=CC2=O)[C@H](O)[C@H](C)O1 [QHL-010-DOX] (X1-AANL-{Doxorubicin(3'-N)})
Tumor volume (mm^3) Day 28 (HT1080 tumors; 36 umol/kg IV once a week for 3 weeks): 0 mm^3 | inhibition in vivo at 36 µmol/kg (HT1080 tumors): 100% | growth inhibition of tumor, outcome in words (HT1080 tumors; compared with equimolar dose AANL-DOX): the tumor disappeared | Tumor volume (mm^3) Day 28 ([1]; 54 umol/kg IV once a week for 4 weeks): 0 mm^3 | inhibition in vivo at 54 µmol/kg [1]: 100%

COc1cccc2c1C(=O)c1c(O)c3c(c(O)c1C2=O)C[C@@](O)(C(=O)CO)C[C@@H]3O[C@H]1C[C@H](NC(=O)[C@H](CC(C)C)NC(=O)[C@H](CC(N)=O)NC(=O)[C@H](C)NC(=O)[C@H](C)NC(=O)[C@H](CCC(=O)O)NC(=O)CCOCCOCCN2C(=O)C=CC2=O)[C@H](O)[C@H](C)O1 [QHL-021-DOX] (X3-EAANL-{Doxorubicin(3'-N)})
Inhibition rate of M2 macrophages (M2 macrophages): 68.6%

CC(C)CC(NC(=O)[C@@H](CC(N)=O)NC(=O)[C@@H](C)NC(=O)[C@@H](C)NC(=O)CCOCCOCCNC(=O)CCN1C(=O)C=CC1=O)C(=O)Nc1nccc(-c2sc(C(C)(C)C)nc2-c2cccc(NS(=O)(=O)c3c(F)cccc3F)c2F)n1 (some centres unmarked) [QHL-087-dabrafenib] ({Propanoyl(3-maleimido)-PEG2}-[dA][dA][dN][ξL]-X2)
solubility [2]: > 10000 µg/mL | CD8:CD45 (%) (CT26 tumor): 6.4% | Tumor inhibition rate (%) Day 28 (CT26 tumor): 64.0% | Tumor volume (mm^3) Day 28 (CT26 tumor): 678.4 ± 348.7 mm^3

CC(NC(=O)CCOCCOCCOCCNC(=O)CCN1C(=O)C=CC1=O)C(=O)NC(C)C(=O)NC(CC(N)=O)C(=O)Nc1ccc(COC(=O)N2CC3(C2)C(=O)[O][Pt-2]([NH3+])([NH3+])[O]C3=O)cc1 (centres unmarked) [QHL-089-N-CBP]
Inhibition rate of M2 macrophages (M2 macrophages): 97.4% | solubility [2]: > 10000 µg/mL

CC(C)CC(NC(=O)[C@@H](CC(N)=O)NC(=O)[C@@H](C)NC(=O)[C@@H](C)NC(=O)CCOCCOCCOCCNC(=O)CCN1C(=O)C=CC1=O)C(=O)Nc1nccc(-c2sc(C(C)(C)C)nc2-c2cccc(NS(=O)(=O)c3c(F)cccc3F)c2F)n1 (some centres unmarked) [QHL-090-dabrafenib] ({Propanoyl(3-maleimido)-PEG3}-[dA][dA][dN][ξL]-X2)
solubility [2]: > 10000 µg/mL | CD8:CD45 (%) (CT26 tumor): 7.4% | therapeutic effect combined with PD-1, in words (CT26 tumor; combined with PD-1 versus single drug): a certain synergistic effect | Tumor inhibition rate (%) Day 28 (CT26 tumor): 68.7% | Tumor volume (mm^3) Day 28 (CT26 tumor): 589.7 ± 247.4 mm^3

CC(NC(=O)CCOCCOCCOCCOCCNC(=O)CCN1C(=O)C=CC1=O)C(=O)NC(C)C(=O)NC(CC(N)=O)C(=O)Nc1ccc(COC(=O)N2CC3(C2)C(=O)[O][Pt-2]([NH3+])([NH3+])[O]C3=O)cc1 (centres unmarked) [QHL-092-N-CBP]
Inhibition rate of M2 macrophages (M2 macrophages): 75.8% | solubility [2]: > 10000 µg/mL

CC(NC(=O)CCOCCOCCOCCOCCOCCOCCNC(=O)CCN1C(=O)C=CC1=O)C(=O)NC(C)C(=O)NC(CC(N)=O)C(=O)Nc1ccc(COC(=O)N2CC3(C2)C(=O)[O][Pt-2]([NH3+])([NH3+])[O]C3=O)cc1 (centres unmarked) [QHL-095-N-CBP]
Inhibition rate of M2 macrophages (M2 macrophages): 68.7% | solubility [2]: > 10000 µg/mL

COc1cccc2c1C(=O)c1c(O)c3c(c(O)c1C2=O)C[C@@](O)(C(=O)CO)C[C@@H]3O[C@H]1C[C@H](NC(=O)[C@H](CC(C)C)NC(=O)[C@H](CC(N)=O)NC(=O)[C@H](C)NC(=O)[C@H](C)NC(=O)[C@H](CCC(=O)O)NC(=O)CCCCCN2C(=O)C=CC2=O)[C@H](O)[C@H](C)O1 [QHL-117-DOX] ({Hexanoyl(6-maleimido)}-EAANL-{Doxorubicin(3'-N)})
inhibition in vivo at 36 µmol/kg (HT1080 tumors): 100% | inhibition in vivo at 54 µmol/kg [1]: 100%
